Experiment [1] in a line: antiviral efficacy and BSC cell toxicity – BSC cells, set 2, SV40 T antigen inhibitor project (AID 2775). Conditions: BSC cells, SV40 CPE inhibition and viability; for viability: BSC cell viability, at 100 µM, stronger effect = lower value.
Experiment [2] relates to BSC cells, SV40 CPE inhibition and viability. Described as above. To be noted: for pEC50: measured here: SV40 T antigen ATPase.

pEC50: −log10 of the molar value. Active and inactive are the calls of the source. How the calls were made is not given here.

On to `O=C(Cn1sc2ccccc2c1=O)Nc1ccc(Cl)cc1`, for which, in experiment [1], the result was inactive and the viability amounted to 83%.

Consider `O=C(Cn1sc2ccccc2c1=O)NCc1ccccc1`, for which the viability in experiment [1] worked out at 22.9%. In experiment [2], the CC50 is 58 µM (inactive) and the pEC50 was 4.50.

As for `O=C(Cn1sc2ccccc2c1=O)Nc1ccccc1`, the viability in experiment [1] is 24%. Also, in experiment [2], the CC50 is 61 µM (inactive) and the pEC50 is 4.46.

For the compound `COc1ccc(NC(=O)Cn2sc3ccccc3c2=O)cc1`, the viability in experiment [1] is 24.9%. Moreover, in experiment [2], the CC50 is 73 µM (inactive) and the pEC50 is 4.46.

With `Cc1ccc(NC(=O)Cn2sc3ccccc3c2=O)cc1`, the viability in experiment [1] was found to be 22%. Also, in experiment [2], the CC50 was 57 µM (inactive) and the pEC50 is 4.28.

For `COc1cccc(NC(=O)Cn2sc3ccccc3c2=O)c1`, in experiment [1], the viability is 52.5%. Moreover, in experiment [2], the CC50 was 57 µM (inactive) and the negative-log EC50 (pEC50) was 4.16.

As to `O=C(Cn1sc2ccccc2c1=O)Nc1ccc(F)cc1`, the viability in experiment [1] turned out to be 30.5%. Moreover, in experiment [2], the CC50 is 59 µM (inactive) and the pEC50 was 4.26.

Regarding `COc1cccc(-n2nnnc2C(Cl)(Cl)c2nnnn2-c2cccc(OC)c2)c1`, in experiment [1], the outcome was inactive and the viability was found to be 99.5%.

`O=C(c1cccn1-c1ccccc1)c1cccn1-c1ccccc1`: in experiment [1], the outcome was inactive and the viability was found to be 110%.

Turning to `O=C(Cn1sc2ccccc2c1=O)Nc1cccc(C(F)(F)F)c1`, in experiment [1], the outcome was inactive and the viability turned out to be 87.5%.

In general, viability refers to a read-out of living cells in per cent, often relative to untreated cells. In general, CC50 refers to the concentration at which the toxic effect on the cells reaches its halfway point. In general, pEC50 refers to −log10 of the EC50, conventionally taken in molar units.

The values are drawn from PubChem BioAssay AID2775 (Southern Research Specialized Biocontainment Screening …, 2010).
